Where a SMILES comes first, the peptide text is derived from it. Bridges are numbered along the chain shown (N, C = ends). [ ]: non-standard residue; d: D form. The star is where a group is joined. hPhe(3-Cl-4-CF3) = N[C@@H](CCc1ccc(C(F)(F)F)c(Cl)c1)C(=O)O; NPrPhe(4-CF3) = CCCN[C@@H](Cc1ccc(C(F)(F)F)cc1)C(=O)O; 3Oxa8azabicyclo(3.2.1)octane = C1CC2COCC1N2*; NMeGly(cPent) = CN[C@H](C(=O)O)C1CCCC1; NMeD = CN[C@@H](CC(=O)O)C(=O)O; NMeL = CN[C@@H](CC(C)C)C(=O)O; NMeA = CN[C@@H](C)C(=O)O; Ac5c = NC1(C(=O)O)CCCC1; Aze = O=C(O)[C@@H]1CCN1; Sar = CNCC(=O)O
Assays:
[1] = target: GDP-bound NRAS wild-type protein (Homo sapiens, UniProt P01111); test: Binding to NRAS by surface plasmon resonance (SPR), Single Cycle Kinetics; conditions: for NRAS/KRAS (ratio of KD value for NRAS to KD value for KRAS): SPR, GDP-bound NRAS wild-type protein vs GDP-bound KRAS wild-type protein; for NRAS/KRAS (ratio of KD value with respect to GDP-bound NRAS wild-type protein to KD value with respect to KRAS): SPR KD ratio NRAS/KRAS, class symbols
[2] = target: GDP-bound HRAS wild-type protein (Homo sapiens, UniProt P01112); test: Binding to HRAS by surface plasmon resonance (SPR), Single Cycle Kinetics; conditions: for HRAS/KRAS (ratio of KD value for HRAS to KD value for KRAS): SPR, GDP-bound HRAS wild-type protein vs GDP-bound KRAS wild-type protein; for HRAS/KRAS (ratio of KD value with respect to GDP-bound HRAS wild-type protein to KD value with respect to KRAS): SPR KD ratio HRAS/KRAS, class symbols
GDP-bound HRAS wild-type protein, sequence (P01112 whole entry): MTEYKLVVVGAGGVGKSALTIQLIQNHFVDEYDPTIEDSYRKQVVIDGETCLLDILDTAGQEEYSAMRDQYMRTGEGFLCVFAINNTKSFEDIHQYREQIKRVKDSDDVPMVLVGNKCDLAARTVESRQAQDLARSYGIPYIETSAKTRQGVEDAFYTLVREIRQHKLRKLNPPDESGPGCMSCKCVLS

GDP-bound NRAS wild-type protein, sequence (P01111 whole entry): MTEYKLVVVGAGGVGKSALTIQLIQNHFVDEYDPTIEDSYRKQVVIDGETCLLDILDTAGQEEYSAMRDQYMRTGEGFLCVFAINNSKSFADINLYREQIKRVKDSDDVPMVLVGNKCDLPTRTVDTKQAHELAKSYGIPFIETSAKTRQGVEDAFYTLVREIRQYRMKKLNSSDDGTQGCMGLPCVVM

| Compound | NRAS/KRAS (ratio of KD value with respect to GDP-bound NRAS wild-type protein to KD value with respect to KRAS) [1] | HRAS/KRAS (ratio of KD value with respect to GDP-bound HRAS wild-type protein to KD value with respect to KRAS) [2] | NRAS/KRAS (ratio of KD value for NRAS to KD value for KRAS) [1] | HRAS/KRAS (ratio of KD value for HRAS to KD value for KRAS) [2] | further results |
| --- | --- | --- | --- | --- | --- |
| C=CC[C@@H]1NC(=O)[C@H](CC2CC2)N(C)C(=O)C[C@@H](C(=O)N(C)CC=C)N(C)C(=O)[C@H](C2CCCC2)N(C)C(=O)C2(CCC2)NC(=O)[C@@H]2C[C@@H](OCC)CN2C(=O)[C@H](CCc2cc(F)c(C(F)(F)F)c(F)c2)NC(=O)CN(C)C(=O)[C@H](Cc2ccc(C(F)(F)F)cc2)N2CC/C=C\C[C@@H](C2=O)N(C)C(=O)CN(C)C1=O [PP1557] |  |  |  |  | NRAS/KRAS (ratio of KD value for NRAS to KD value for KRAS) ([1]; KD ratio class): A (a compound having 10 or more and less than 20 is denoted as A); HRAS/KRAS (ratio of KD value for HRAS to KD value for KRAS) ([2]; KD ratio class): A (a compound having 10 or more and less than 20 is denoted as A) |
| CCC[C@H]1C(=O)N[C@@H]([C@@H](C)CC)C(=O)N(C2CC2)CC(=O)N(C)[C@H]2C/C=C\CCN(C2=O)[C@@H](Cc2ccc(C)cc2)C(=O)N(C)CC(=O)N[C@@H](CCc2ccc(C(F)(F)F)c(CC)c2)C(=O)N2C[C@H](OCC)C[C@H]2C(=O)NC2(CC(C)(C)C2)C(=O)N(C)[C@@H](C2CCCC2)C(=O)N(C)[C@H](C(=O)N(C)C)CC(=O)N1C [PP2870] | A (a compound having 10 or more and less than 20 is denoted as A) | A (a compound having 10 or more and less than 20 is denoted as A) |  |  |  |
| CCC[C@H]1C(=O)N[C@@H]([C@@H](C)CC)C(=O)N(C2CC2)CC(=O)N(C)[C@H]2C/C=C\CCN(C2=O)[C@@H](Cc2ccc(C)cc2)C(=O)N(C)CC(=O)N[C@@H](CCc2cc(F)c3c(c2)CCC3)C(=O)N2C[C@H](OCC)C[C@H]2C(=O)NC2(CC(C)(C)C2)C(=O)N(C)[C@@H](C2CCCC2)C(=O)N(C)[C@H](C(=O)N(C)C)CC(=O)N1C [PP2879] | A (a compound having 10 or more and less than 20 is denoted as A) | A (a compound having 10 or more and less than 20 is denoted as A) |  |  |  |
| CCO[C@@H]1C[C@H]2C(=O)NC3(CCCC3)C(=O)N(C)[C@@H](C3CCCC3)C(=O)N(C)[C@H](C(=O)N(C)C)CC(=O)N(C)[C@@H](CC(C)C)C(=O)N[C@@H]([C@@H](C)CC)C(=O)N(C)CC(=O)N(C)[C@H]3C/C=C\CCN(C3=O)[C@@H](Cc3ccc(C(F)(F)F)cc3)C(=O)N(C)CC(=O)N[C@@H](CCc3cc(F)c(C(F)(F)F)c(F)c3)C(=O)N2C1 [PP1105, (2S,8S,12R,14S,20S,23S,27S,30S,36S,38Z)-20-cyclopentyl-8-[2-[3,5-difluoro-4-(trifluoromethyl)phenyl]ethyl]-12-ethoxy-27-isobutyl-N,N,4,19,22,26,32,35-octamethyl-30-[(1S)-1-methylpropyl]-3,6,9,15,18,21,25,28,31,34,42-undecaoxo-2-[[4-(trifluoromethyl)phenyl]methyl]spiro[1,4,7,10,16,19,22,26,29,32,35-undecazatricyclo[34.5.1.0^10,14]dotetracont-38-ene-17,1′-cyclopentane]-23-carboxamide] |  |  | A (a compound having 10 or more and less than 20 is denoted as A) | A (a compound having 10 or more and less than 20 is denoted as A) |  |
| CCC[C@H]1C(=O)N[C@@H]([C@@H](C)CC)C(=O)N(C2CC2)CC(=O)N(C)[C@H]2C/C=C\CCN(C2=O)[C@@H](Cc2ccc(C)cc2)C(=O)N(C)CC(=O)N[C@@H](CCc2cc(C)c(C(F)F)c(Cl)c2)C(=O)N2C[C@H](OCC)C[C@H]2C(=O)NC2(CC(C)(C)C2)C(=O)N(C)[C@@H](C2CCCC2)C(=O)N(C)[C@H](C(=O)N(C)C)CC(=O)N1C [PP2875] | A (a compound having 10 or more and less than 20 is denoted as A) | A (a compound having 10 or more and less than 20 is denoted as A) |  |  |  |
| CCC[C@H]1C(=O)N[C@@H]([C@@H](C)CC)C(=O)N(CCC)CC(=O)N(C)[C@H]2C/C=C\CCN(C2=O)[C@@H](Cc2ccc(C)cc2)C(=O)N(C)CC(=O)N[C@@H](CCc2ccc(C(F)(F)F)c(OC)c2)C(=O)N2C[C@H](OCC)C[C@H]2C(=O)NC2(CC(C)(C)C2)C(=O)N(C)[C@@H](C2CCCC2)C(=O)N(C)[C@H](C(=O)N(C)C)CC(=O)N1C [PP2054] |  |  | A (a compound having 10 or more and less than 20 is denoted as A) | A (a compound having 10 or more and less than 20 is denoted as A) |  |
| CCC[C@H]1C(=O)N[C@@H]([C@@H](C)CC)C(=O)N(C)CC(=O)N(C)[C@H]2C/C=C\CCN(C2=O)[C@@H](Cc2ccc(C)cc2)C(=O)N(C)CC(=O)N[C@@H](CCc2cc(Cl)c3c(ccn3C)c2)C(=O)N2C[C@H](OCC)C[C@H]2C(=O)NC2(CC(C)(C)C2)C(=O)N(C)[C@@H](C2CCCC2)C(=O)N(C)[C@H](C(=O)N(C)C)CC(=O)N1C [PP2951] | A (a compound having 10 or more and less than 20 is denoted as A) | A (a compound having 10 or more and less than 20 is denoted as A) |  |  |  |
| CCO[C@@H]1C[C@H]2C(=O)NC3(CC(C)(C)C3)C(=O)N(C)[C@@H](C(CC)CC)C(=O)N(C)[C@H](C(=O)N3CCCC3)CC(=O)N(C)[C@@H](COC)C(=O)N[C@@H]([C@@H](C)CC)C(=O)N(C)CC(=O)N(C)[C@H]3C/C=C\CCN(C3=O)[C@@H](Cc3ccc(C)cc3)C(=O)N(C)CC(=O)N[C@@H](CCc3cc(F)c(C(F)(F)F)c(F)c3)C(=O)N2C1 [PP2139] |  |  | AA (a compound having 20 or more is denoted as AA) | A (a compound having 10 or more and less than 20 is denoted as A) |  |
| CCC[C@H]1C(=O)N[C@@H]([C@@H](C)CC)C(=O)N(C)CC(=O)N(C)[C@H]2C/C=C\CCN(C2=O)[C@@H](Cc2ccc(C(F)(F)F)cc2)C(=O)N(C)CC(=O)N[C@@H](CCc2ccc(C(F)(F)F)c(CC)c2)C(=O)N2C[C@H](OCC)C[C@H]2C(=O)NC2(CC(C)(C)C2)C(=O)N(C)[C@@H](C2CCCC2)C(=O)N(C)[C@H](C(=O)N(C)C)CC(=O)N1C [PP2861] | A (a compound having 10 or more and less than 20 is denoted as A) | B (a compound having 3 or more and less than 10 is denoted as B) |  |  |  |
| CCCN1C(=O)[C@@H]2CCN2C(=O)[C@H](C)N(C)C(=O)[C@H]([C@@H](C)CC)NC(=O)[C@H](CC(C)C)N(C)C(=O)C[C@@H](C(=O)N2C3CCC2COC3)N(C)C(=O)[C@H](C2CCCC2)N(C)C(=O)C2(CCCC2)NC(=O)[C@@H]2CCCN2C(=O)[C@H](CCc2ccc(C(F)(F)F)c(Cl)c2)NC(=O)CN(C)C(=O)[C@@H]1Cc1ccc(C(F)(F)F)cc1 [PP0182] ([NMeL]I[NMeA][Aze][NPrPhe(4-CF3)][Sar][hPhe(3-Cl-4-CF3)]P[Ac5c][NMeGly(cPent)][NMeD]-{3Oxa8azabicyclo(3.2.1)octane}; lactam N-11) |  |  | C (A compound having a KD ratio of 0.1 or more and less than 3 is denoted as C) | B (a compound having 3 or more and less than 10 is denoted as B) |  |
| CC[C@H](C)[C@@H]1NC(=O)[C@H](CC(C)C)N(C)C(=O)C[C@@H](C(=O)N2CCOCC2)N(C)C(=O)[C@H](C2CCCC2)N(C)C(=O)C2(CCC2)NC(=O)[C@@H]2C[C@@H](OCCC(F)(F)F)CN2C(=O)[C@H](CCc2cc(F)c(C(F)(F)F)c(F)c2)NC(=O)CN(C)C(=O)[C@H](Cc2ccc(C(F)(F)F)cc2)N2CCCC[C@@H](C2=O)N(C)C(=O)CN(C)C1=O (stereo in doubt) [PP0998] |  |  | B (a compound having 3 or more and less than 10 is denoted as B) | B (a compound having 3 or more and less than 10 is denoted as B) |  |
| CCO[C@@H]1C[C@H]2C(=O)NC3(CCC3)C(=O)N(C)[C@@H](C3CCCC3)C(=O)N(C)[C@H](C(=O)N(C)CC)CC(=O)N(C)[C@@H](CC3CCC3)C(=O)N[C@@H]([C@@H](C)CC)C(=O)N(C)CC(=O)N(C)[C@H]3C/C=C\CCN(C3=O)[C@@H](Cc3ccc(C(F)(F)F)cc3)C(=O)N(C)CC(=O)N[C@@H](CCc3ccc(Cl)c(Cl)c3)C(=O)N2C1 [PP2824] | A (a compound having 10 or more and less than 20 is denoted as A) | A (a compound having 10 or more and less than 20 is denoted as A) |  |  |  |
| CCO[C@@H]1C[C@H]2C(=O)NC3(CCC3)C(=O)N(C)[C@@H](C3CCCC3)C(=O)N(C)[C@H](C(=O)N(C)C)CC(=O)N(C)[C@@H](CC(C)C)C(=O)N[C@@H]([C@@H](C)CC)C(=O)N(C)CC(=O)N(C)[C@H]3CCCCCN(C3=O)[C@@H](Cc3ccc(F)cc3)C(=O)N(C)CC(=O)N[C@@H](CCc3ccc(C(F)(F)F)c(Cl)c3)C(=O)N2C1 [PP0972] |  |  | B (a compound having 3 or more and less than 10 is denoted as B) | B (a compound having 3 or more and less than 10 is denoted as B) |  |
| CCC[C@H]1C(=O)N[C@@H]([C@@H](C)CC)C(=O)N(C)CC(=O)N(C)[C@H]2C/C=C\CCN(C2=O)[C@@H](Cc2ccc(C(F)(F)F)cc2)C(=O)N(C)CC(=O)N[C@@H](CCc2ccc(C(F)(F)F)c(C3CC3)c2)C(=O)N2C[C@H](OCC)C[C@H]2C(=O)NC2(CC(C)(C)C2)C(=O)N(C)[C@@H](C2CCCC2)C(=O)N(C)[C@H](C(=O)N(C)C)CC(=O)N1C [PP2852] | B (a compound having 3 or more and less than 10 is denoted as B) | B (a compound having 3 or more and less than 10 is denoted as B) |  |  |  |

From patent US20240158446A1, “CYCLIC COMPOUND HAVING SELECTIVE INHIBITORY ACTION ON KRAS OVER HRAS AND NRAS” (CHUGAI SEIYAKU KABUSHIKI KAISHA, priority 2021, published 2024)
